The source of these data is paper PMC5947527 (Chemical Science, 2015).

Entries after “also recorded” stand apart in the source; their conditions may differ. Non-standard residues stand in square brackets, D forms with d. Residues, ends and D or L forms follow the SMILES beside them. *: point of attachment. NBD = O=[N+]([O-])c1ccc(*)c2nonc12; Nle = CCCC[C@H](N)C(=O)O; Ahx = NCCCCCC(=O)O

What all share (type): cell-based
Test [1] relates to Methicillin sensitive S. aureus, K. pneumoniae and P. aeruginosa. The experiment in a line: Bacterial affinity: fluorescence retention following a PBS wash (confocal). The following applies: 10 µM, two gentle PBS washes, three bacterial species, n=3. On the procedure: Three compounds (UBI-3, UBI-5 and UBI-10) were assessed for further evaluation. […] In vitro affinity of bacterial binding was assessed by incorporating a wash step in the live confocal imaging protocol with a panel of bacteria with the ‘wash-off’ representing a surrogate indicator of Smartprobe-bacterial labelling affinity. […] UBI-10, therefore, was assessed further in a clinically relevant biological system.
Figure S4. Quantified fluorescence of confocal microscopy images of the compounds UBI-3, UBI-5 and UBI-10 on three bacteria and fluorescence retention following a PBS wash. Quantification of fluorescence intensity of (A) Methicillin sensitive S. aureus, (B) K. pneumoniae and (C) and P. […]
intensity following a PBS wash. […]
(§1) Confocal Analysis and Fluorescence Quantification: 8-Well Lab-Tek II Confocal Chambers (VWR, PA, USA) were coated in fibronectin (for neutrophil experiments) or poly-d-lysine (for bacteria) at 37 °C for 20 minutes, then washed in PBS prior to bacterial innoculation. For co-culture assays, neutrophils were seeded on fibronectin coated wells at 1 x 10^5 neutrophils per well for 20 minutes and non-adherent neutrophils aspirated. Bacteria were added to each chamber to a final concentration of 0.5 OD595 nm with the desired final concentration of Smartprobe. A laser-scanning confocal imaging system (LSM510; Carl Zeiss, Jena, Germany), incorporating an upright Axioskop FS2 microscope (63× objective) was used for image acquisition and processing. Exposure to 488 nm light was limited to 5% of the maximum laser power in order to minimize toxicity. ‘Green’ fluorescence (for FAM and NBD) was excited with a dedicated 488 nm line and emitted light detected with meta detector (500-530 nM).
(§2) Syto nuclear and dyes were excited with a dedicated 543 nm line, and emitted light detected with meta detector (570-610 nM). Fields of view were chosen based on the counterstain and at least three fields of view were recorded for each condition. For affinity assays, following initial imaging, the fluid was aspirated and two gentle washes with PBS were performed. The chamber was re-imaged on confocal.
(§3) Analysis was with ImageJ (version 1.46r, National Institutes of Health, USA); the Syto channel was automatically thresholded (MaxEntropy, with a set threshold 0-47) and an ROI generated from this. The […]
(§4) mean fluorescence intensity on the probe channel within this ROI was quantified. Data presented represents the mean of three experiments, from each of which three separate fields of view were assessed. All experiments were performed at least three times unless otherwise stated and results expressed as mean ± SEM. Data was analysed by unpaired t-test and significance was determined as p<0.05 (GraphPad Prism version 5.01 for Windows, GraphPad Software, San Diego California USA).
Ex vivo Human Lung and FCFM Procedure: Human lung samples were obtained from patients undergoing surgical resection for lung carcinoma. All images were obtained on sections of normal lung away from the cancerous growth. Informed consent was obtained and the study was approved by the Regional Ethics Committee. Samples were taken fresh from the operating theatre, dissected into 4mm sections and placed in wells of 96 well plate. Bacteria were pre-labelled with Smartprobe or Calcein AM and co-cultured in the well with a maximum volume of 100µl. […]

Test [2] deals with isolated human neutrophils. The experiment in a line: Co-culture of bacteria and isolated human neutrophils, confocal specificity.
From the text: Neutrophil Isolation: Neutrophils for in vitro experiments were isolated from peripheral venous blood of healthy human volunteers (Ethical approval was obtained from the Lothian Research Ethics Committee). Blood was anticoagulated with sodium citrate (0.38% final concentration) and polymorphonuclear leukocytes were isolated via dextran sedimentation followed by centrifugation through discontinuous plasma-Percoll gradients, as previously described. S4 […]
as §1, §2
Analysis was with ImageJ (version 1.46r, National Institutes of Health, USA); the Syto channel was automatically thresholded (MaxEntropy, with a set threshold 0-47) and an ROI generated from this. The

Test [3] has as its system methicillin-sensitive Staphylococcus aureus. The experiment in a line: Confocal labelling of MSSA with quantified fluorescence. Here is the method:
Fig. 6 Confocal Images of compounds UBI-3 to 9 with quantified fluorescence. Panels show methicillin-sensitive Staphylococcus aureus incubated with UBI-3 to 9 (all 10 μM) with quantification of bacterial fluorescence normalized to UBI-3 (bars represent mean (±SEM), n ≥ 3, ns = not significant, *** = p < 0.001, * = p < 0.05, scale bar = 10 μm).
Fig. 8 Confocal images and quantification of cyclic variants when compared to UBI-3. Panels show methicillin-sensitive Staphylococcus aureus incubated with cyclic UBI compounds (all 10 μM) with quantification of bacterial fluorescence normalized to UBI-3 (bars represent mean (±SEM), n ≥ 3, ns = not significant, ** = p < 0.01, scale bar = 10 μm).
Bacterial Culture and Labelling: Bacteria used were K. pneumoniae (ATCC BAA1706) ATCC, E. coli (ATCC 25922) ATCC, A. baumannii (J3433) Clinical Isolate, P. aeruginosa (J3284) Clinical Isolate, Methicillin Resistant S. aureus (MRSA) (ATCC25923) ATCC and Methicillin Sensitive S. aureus (MSSA) (ATCC 252) ATCC. All bacteria were grown on Lysogeny broth (LB) agar and from a single bacterial colony placed into 10ml of LB and incubated at 37°C for 16 hours in an orbital shaker.
Cultures were centrifuged at 4000rpm for 5 minutes and the pellet resuspended in 1ml phosphate buffered saline (PBS, Life Technologies). Following three further washes in PBS the cultures were reconstituted to 1 OD595 nm. Bacteria were counterstained with 5µM Syto 82 orange fluorescent nucleic acid stain (Invitrogen, CA, USA) in a shaking heat block at 37 °C for 20 minutes. For FCFM bacteria were stained with 1µM Calcein AM (Sigma, MO, USA) for 30 minutes at 37 °C. Counterstained bacteria were washed in PBS to remove excess dye. […]
as §1, §2, §3, §4
Ex vivo Human Lung and FCFM Procedure: Human lung samples were obtained from patients undergoing surgical resection for lung carcinoma. All images were obtained on sections of normal lung […]

[4] abbreviates: 0.5 μM to 50 μM, methicillin sensitive S. aureus.

On to `CCCC[C@H](NC(=O)[C@H](CCCNC(=N)N)NC(=O)[C@H](CCCNC(=N)N)NC(=O)[C@H](CCCCN)NC(=O)[C@H](C)NC(=O)[C@H](CCCNC(=N)N)NC(=O)CNC(=O)[C@@H](NC(=O)CCCCCNc1ccc([N+](=O)[O-])c2nonc12)[C@@H](C)O)C(=O)N[C@@H](CCC(N)=O)C(=O)N[C@@H](Cc1ccc(O)cc1)C(=O)N[C@@H](CC(N)=O)C(=O)N[C@@H](CCCNC(=N)N)C(=O)N[C@@H](CCCNC(=N)N)C(N)=O` [UBI-3] ({NBD-Ahx}-TGRAKRR[Nle]QYNRR-NH2), for which, in test [1], the “fluorescence following labelling and a PBS wash” value is listed as “significantly lower fluorescence”. For the same compound, the “labelling of neutrophils vs bacteria” value in test [2] (bacteria with isolated human neutrophils, confocal) was “labels bacteria but not isolated human neutrophils”. The “concentration dependence of bacterial labelling” value in test [3] (setting [4]) is reported as “concentration dependent manner; also recorded: concentration dependent increase in bacterial fluorescence”.
In the case of `CCCC[C@@H]1NC(=O)[C@H](CCCNC(=N)N)NC(=O)[C@H](CCCNC(=N)N)NC(=O)[C@H](CCCCN)NC(=O)[C@H](C)NC(=O)[C@H](CCCNC(=N)N)NC(=O)CNC(=O)[C@H]([C@@H](C)O)NC(=O)[C@@H](NC(=O)CCCCCNc2ccc([N+](=O)[O-])c3nonc23)CCCCNC(=O)CNC(=O)[C@H](CCCNC(=N)N)NC(=O)[C@H](CCCNC(=N)N)NC(=O)[C@H](CC(N)=O)NC(=O)[C@H](Cc2ccc(O)cc2)NC(=O)[C@H](CCC(N)=O)NC1=O` [UBI-10], the “fluorescence following labelling and a PBS wash” value in test [1] was “retains a significant fluorescence intensity”. Also, in test [2] (co-culture of isolated human neutrophils and methicillin sensitive S. aureus, 10 μM), the “labelling of neutrophils at 10 μM” value was “retained bacterial specificity over neutrophils; also recorded: no labelling of neutrophils”. The “labelling of neutrophils at 50 μM” value in test [2] (co-culture of isolated human neutrophils and methicillin sensitive S. aureus, 50 μM) is on record as “some neutrophil labelling was observed; also recorded: occasional neutrophil labelling was observed”. Also, in test [3] (setting [4]), the “concentration dependence of bacterial labelling” value was “concentration dependent manner; also recorded: concentration dependent increase in bacterial fluorescence” and the “relative fluorescence of labelled bacteria compared with the other compounds” value is recorded as “higher than UBI-3 or UBI-5 labelled bacteria; also recorded: higher fluorescence (per molar equivalents) at all concentrations tested”. Further, the “bacterial labelling (fluorescence compared with UBI-3)” value in test [3] (MSSA, 10 μM, fluorescence normalized to UBI-3, mean ± SEM, n ≥ 3) is “significantly higher signal; also recorded: improved bacterial labelling”.
